Source: patent US12110286B2, “Benzimidazolone derived inhibitors of BCL6” (Cancer Research Technology Limited, priority 2017, dated 2024)

Biological target: Trx-6×His-BCL6 (human BCL6 BTB domain covering amino-acid sequence 5-129) (Homo sapiens (Human), UniProt P41182)
Assay: HTRF in vitro assay (BCL6 / BCOR-AF633 peptide)
Assay type: binding
Settings: for activity in the HTRF assay: result in words
Procedure: The % inhibition at each concentration was calculated by normalising FRET ratio to the appropriate high (DMSO with all reagents) and low (DMSO without BCL6) controls.

[1] = initially generated data, 10 nM Trx-6×His-BCL6, 300 nM BCOR-AF633 peptide, 1 nM anti-6×His-Terbium cryptate
[2] = further generated data, 1 nM Trx-6×His-BCL6, 300 nM BCOR-AF633 peptide, 0.5 nM anti-6×His-Terbium cryptate

Row | Compound | HTRF pIC50 [1] | HTRF pIC50 [2] | activity in the HTRF assay
1 | C#CCCNC(=O)c1cc(Nc2ccc3c(c2)n(CCC(C)C(=O)OC)c(=O)n3C)c(C#N)c(Cl)n1 (stereo not drawn) [Example 7b, Methyl 4-[6-[[6-(but-3-ynylcarbamoyl)-2-chloro-3-cyano-4-pyridyl]amino]-3-methyl-2-oxo-benzimidazol-1-yl]-2-methyl-butanoate] | 5.84 |  | 
2 | CC1OCCC1Cn1c(=O)n(C)c2ccc(Nc3ccnc(Cl)c3C#N)cc21 (stereo not drawn) [Example 19b] |  | 5.55 | 
3 | CCOC(=O)c1cc(Nc2ccc3c(c2)n(CC(O)CC)c(=O)n3C)n2ncc(F)c2n1 (stereo not drawn) [Example 1r, Ethyl 3-fluoro-7-((3-(2-hydroxybutyl)-1-methyl-2-oxo-2,3-dihydro-1H-benzo[d]imidazol-5-yl)amino)pyrazolo[1,5-a]pyrimidine-5-carboxylate] | 5.39 | 5.91 | 
4 | Cn1c(=O)n(CC2CCOCC2)c2cc(Nc3ccnc(Cl)c3C#N)ccc21 [2-chloro-4-((1-methyl-2-oxo-3-((tetrahydro-2H-pyran-4-yl)methyl)-2,3-dihydro-1H-benzo[d]imidazol-5-yl)amino)nicotinonitrile] |  |  | did not exhibit the desired activity
5 | Cn1c(=O)n(C)c2cc(Nc3cc(C(F)(F)F)nc4ncnn34)ccc21 [1,3-dimethyl-5-((5-(trifluoromethyl)-[1,2,4]triazolo[1,5-a]pyrimidin-7-yl)amino)-1,3-dihydro-2H-benzo[d]imidazol-2-one] |  |  | did not exhibit the desired activity
6 | Cn1c(=O)n(C)c2cc(Nc3ccnc(C(F)(F)F)c3C#N)ccc21 [4-((1,3-dimethyl-2-oxo-2,3-dihydro-1H-benzo[d]imidazol-5-yl)amino)-2-(trifluoromethyl)nicotinonitrile] |  |  | did not exhibit the desired activity
7 | CCC(C)(O)CCn1c(=O)n(C)c2ccc(Nc3nc(Cl)ncc3Cl)cc21 (stereo not drawn) [Example 22g, 5-((2,5-dichloropyrimidin-4-yl)amino)-3-(3-hydroxy-3-methylpentyl)-1-methyl-1,3-dihydro-2H-benzo[d]imidazol-2-one] |  | 5.27 | 
8 | Cn1c(=O)n(CCC(C)(O)C(F)(F)F)c2cc(Nc3ccnc(Cl)c3C#N)ccc21 (stereo not drawn) [Example 27d, 2-chloro-4-((1-methyl-2-oxo-3-(4,4,4-trifluoro-3-hydroxy-3-methylbutyl)-2,3-dihydro-1H-benzo[d]imidazol-5-yl)amino)nicotinonitrile] |  | 5.70 | 
9 | C#CCC(C)(O)CCn1c(=O)n(C)c2ccc(Nc3ccnc(Cl)c3C#N)cc21 (stereo not drawn) [Example 27a, 2-chloro-4-((3-(3-hydroxy-3-methylhex-5-yn-1-yl)-1-methyl-2-oxo-2,3-dihydro-1H-benzo[d]imidazol-5-yl)amino)nicotinonitrile] |  | 5.86 | 
10 | CCC(=O)CCn1c(=O)n(C)c2ccc(Nc3ccnc(Cl)c3C#N)cc21 [Example 19a, 2-chloro-4-((1-methyl-2-oxo-3-(3-oxopentyl)-2,3-dihydro-1H-benzo[d]imidazol-5-yl)amino)nicotinonitrile] |  | 5.83 | 
11 | Cn1c(=O)n(CC2C[C@H](F)CN2CC(F)(F)F)c2cc(Nc3ccnc(Cl)c3C#N)ccc21 (stereo in doubt) [Example 25h, 2-chloro-4-((3-(((2R,4S)-4-fluoro-1-(2,2,2-trifluoroethyl)pyrrolidin-2-yl)methyl)-1-methyl-2-oxo-2,3-dihydro-1H-benzo[d]imidazol-5-yl)amino)nicotinonitrile] |  | 5.55 | 
12 | Cc1nc(C)c(-c2ncc(Cl)c(Nc3ccc4c(c3)n(CCC(C)(C)O)c(=O)n4C)n2)s1 [Example 23c] |  | 5.99 | 
13 | Cn1c(=O)n(CCC(C)(C)O)c2cc(Nc3cc4nccn4cc3Cl)ccc21 [5-((6-chloroimidazo[1,2-a]pyridin-7-yl)amino)-3-(3-hydroxy-3-methylbutyl)-1-methyl-1,3-dihydro-2H-benzo[d]imidazol-2-one] |  |  | did not exhibit the desired activity
14 | CSc1ncc(Cl)c(Nc2ccc3c(c2)n(CCC(C)(C)O)c(=O)n3C)n1 [Example 22a, 5-((5-chloro-2-(methylthio)pyrimidin-4-yl)amino)-3-(3-hydroxy-3-methylbutyl)-1-methyl-1,3-dihydro-2H-benzo[d]imidazol-2-one] |  | 6.19 | 
15 | Cn1c(=O)n(CCC(C)(C)O)c2cc(Nc3nc(N4CCCC(c5ccccc5)C4)ncc3Cl)ccc21 (stereo not drawn) [Example 35za, 5-((5-chloro-2-(3-phenylpiperidin-1-yl)pyrimidin-4-yl)amino)-3-(3-hydroxy-3-methylbutyl)-1-methyl-1,3-dihydro-2H-benzo[d]imidazol-2-one] |  | 6.00 | 
16 | Cn1c(=O)n(CCC(C)(C)O)c2cc(Nc3cc(N4CCC[C@H]4CO)nc4c(C#N)cnn34)ccc21 [Example 31b, (S)-7-((3-(3-hydroxy-3-methylbutyl)-1-methyl-2-oxo-2,3-dihydro-1H-benzo[d]imidazol-5-yl)amino)-5-(2-(hydroxymethyl)pyrrolidin-1-yl)pyrazolo[1,5-a]pyrimidine-3-carbonitrile] |  | 5.73 | 
17 | CCOC(=O)c1cc(Nc2ccc3c(c2)n(CCC(C)C(=O)OC)c(=O)n3C)n2nccc2n1 (stereo not drawn) [Example 8, Ethyl 7-[[3-(4-methoxy-3-methyl-4-oxo-butyl)-1-methyl-2-oxo-benzimidazol-5-yl]amino]pyrazolo[1,5-a]pyrimidine-5-carboxylate] | 5.83 | 6.01 | 

Row | Compound | HTRF pIC50 [1] | HTRF pIC50 [2] | activity in the HTRF assay
18 | Cn1c(=O)n(CCC(C)(C)O)c2cc(Nc3ncnc(Cl)c3Cl)ccc21 [Example 22l] |  | 5.64 | 
19 | C[C@@H](O)CCn1c(=O)n(C)c2ccc(Nc3cc(Cl)ncc3Cl)cc21 [Example 1m, 5-[(2,5-dichloro-4-pyridyl)amino]-3-[(3R)-3-hydroxybutyl]-1-methyl-benzimidazol-2-one] | 5.62 | 5.47 | 
20 | Cn1c(=O)n(CCC(C)(C)O)c2cc(Nc3nc(Cl)nc(Cl)c3Cl)ccc21 [Example 22i] |  | 5.54 | 
21 | Cn1c(=O)n(C)c2cc(Nc3cc(C(=O)O)nc(Cl)c3C#N)ccc21 [Example 1c, 6-chloro-5-cyano-4-[(1,3-dimethyl-2-oxo-benzimidazol-5-yl)amino]pyridine-2-carboxylic acid] | 6.05 | 6.08 | 
22 | Cn1ccnc1-c1ncc(Cl)c(Nc2ccc3c(c2)n(CCC(C)(C)O)c(=O)n3C)n1 [Example 24a, 5-((5-chloro-2-(1-methyl-1H-imidazol-2-yl)pyrimidin-4-yl)amino)-3-(3-hydroxy-3-methylbutyl)-1-methyl-1,3-dihydro-2H-benzo[d]imidazol-2-one:formic acid (1:1)] |  | 6.33 | 
23 | Cn1c(=O)n(CC2(CO)COC2)c2cc(Nc3ccnc(Cl)c3C#N)ccc21 [2-chloro-4-((3-((3-(hydroxymethyl)oxetan-3-yl)methyl)-1-methyl-2-oxo-2,3-dihydro-1H-benzo[d]imidazol-5-yl)amino)nicotinonitrile] |  |  | did not exhibit the desired activity
24 | CC(C)C(C)(O)CCn1c(=O)n(C)c2ccc(Nc3ccnc(Cl)c3C#N)cc21 (stereo not drawn) [Example 27f, 2-chloro-4-((3-(3-hydroxy-3,4-dimethylpentyl)-1-methyl-2-oxo-2,3-dihydro-1H-benzo[d]imidazol-5-yl)amino)nicotinonitrile] |  | 5.40 | 
25 | Cn1c(=O)n(CCC(C)(C)O)c2cc(Nc3nc(N4CC5CC(C4)C5(F)F)ncc3Cl)ccc21 [Example 35w, 5-((5-chloro-2-(6,6-difluoro-3-azabicyclo[3.1.1]heptan-3-yl)pyrimidin-4-yl)amino)-3-(3-hydroxy-3-methylbutyl)-1-methyl-1,3-dihydro-2H-benzo[d]imidazol-2-one] |  | 5.74 | 
26 | CCOC(=O)/C=C/Cn1c(=O)n(CCC(C)(C)O)c2cc(Nc3nc(N4C[C@@H](C)C(F)(F)[C@@H](C)C4)ncc3Cl)ccc21 [Example 38a, ethyl(E)-4-(5-((5-chloro-2-((3S,5R)-4,4-difluoro-3,5-dimethylpiperidin-1-yl)pyrimidin-4-yl)amino)-3-(3-hydroxy-3-methylbutyl)-2-oxo-2,3-dihydro-1H-benzo[d]imidazol-1-yl)but-2-enoate] |  | 5.53 | 
27 | Cn1c(=O)n(CCC(C)(C)O)c2cc(Nc3ccnc(Cl)c3Cl)ccc21 [Example 29b, 5-((2,3-dichloropyridin-4-yl)amino)-3-(3-hydroxy-3-methylbutyl)-1-methyl-1,3-dihydro-2H-benzo[d]imidazol-2-one] |  | 5.88 | 
28 | Cn1c(=O)n(CCC(C)(C)O)c2cc(Nc3nc(N4CCC(CN5CCOCC5)CC4)ncc3Cl)ccc21 [Example 42c, 5-((5-chloro-2-(4-(morpholinomethyl)piperidin-1-yl)pyrimidin-4-yl)amino)-3-(3-hydroxy-3-methylbutyl)-1-methyl-1,3-dihydro-2H-benzo[d]imidazol-2-one] |  | 6.56 | 
29 | CN(C)CCNC(=O)c1cc(Nc2ccc3c(c2)n(C)c(=O)n3C)c(C#N)c(Cl)n1 [Example 7d, 6-Chloro-5-cyano-N-[2-(dimethylamino)ethyl]-4-[(1,3-dimethyl-2-oxo-benzimidazol-5-yl)amino]pyridine-2-carboxamide:formic acid (1:1)] | 5.50 |  | 
30 | Cn1c(=O)n(CCC(C)(C)O)c2cc(Nc3nc(N4CC(C(F)(F)F)OC(C)(C)C4)ncc3Cl)ccc21 (stereo not drawn) [Example 20k] |  | 6.11 | 
31 | CN1CC(Cn2c(=O)n(C)c3ccc(Nc4nc(N5CC(C)(C)OC(C)(C)C5)ncc4Cl)cc32)(C(C)(C)O)OC1=O (stereo not drawn) [Example 20b] |  | 6.01 | 
32 | COC(=O)C(CCn1c(=O)n(C)c2ccc(Nc3ccnc(Cl)c3C#N)cc21)OCC1CC1 (stereo not drawn) [Example 10e] | 5.52 | 5.38 | 
33 | Cn1c(=O)n(CCC2(C)OCCO2)c2cc(Nc3ccnc(Cl)c3C#N)ccc21 [Example 19c] |  | 5.45 | 
34 | Cc1cc(-c2ncc(Cl)c(Nc3ccc4c(c3)n(CCC(C)(C)O)c(=O)n4C)n2)n(C)n1 [Example 23b] |  | 6.05 | 
